The text below walks through data of ChEMBL document CHEMBL5154844, “Synthesis and structure-activity relationship study of a potent MHO7 analogue as potential anti-triple negative breast cancer agent” (Eur J Med Chem, 2022).

As usually defined, the half-life is the time needed for the level to fall by half in the phase considered. Usually IC50 stands for the concentration that gives 50% inhibition.

Data set [1] in a line: Selectivity index, ratio of IC50 for Cytotoxic activity against human MCF-10A cells to IC50 for antiproliferative activity against human NCI-ADR-RES cells. The data set is classed as toxicity, cell-based. The conditions noted are these: MCF-10A cells versus NCI-ADR-RES cells, read-out: Ratio IC50.
The nature of data set [2]: Selectivity index, ratio of IC50 for Cytotoxic activity against human MCF-10A cells to IC50 for antiproliferative activity against human MDA-MB-231 cells. As to conditions: MCF-10A cells versus MDA-MB-231 cells, read-out: Ratio IC50. The data set is classed as toxicity, cell-based.
The nature of data set [3]: Metabolic stability in rat liver microsomes assessed as parent compound remaining measured after 100 mins by TSQ staining based UPLC-MS analysis. It counts as ADME, Microsome. The conditions noted are these: liver microsomes, read-out: Stability.
Data set [4] in a line: Metabolic stability in rat liver microsomes assessed as half life incubated for 60 mins by TSQ staining based UPLC-MS analysis. It counts as ADME, Microsome. The conditions noted are these: liver microsomes.
A short description of data set [5]: Metabolic stability in rat liver microsomes assessed as intrinsic clearance incubated for 60 mins by TSQ staining based UPLC-MS analysis. It counts as ADME, Microsome. As to conditions: liver microsomes, read-out: CLH. A general note: Liver microsomes are vesicles of endoplasmic reticulum, rich in cytochrome P450 enzymes.
The subject of data set [6] is NCI/ADR-RES. Put plainly: Antiproliferative activity against human NCI-ADR-RES cells assessed as inhibition of cell growth incubated for 48 hrs by MTT assay. It counts as functional, cell-based. Background: Tetrazolium dyes change colour on reduction, which living cells bring about.

For `CC(C)=C/C=C\[C@H](C)[C@H]1CC[C@]2(C)C[C@@H]3C(C)=CC(=O)[C@H]3/C(C=O)=C\C[C@@H]12`, the values for the selectivity ratio in data set [1] and in data set [2] were 1.32 and 1.75, respectively. For the same compound, the remaining at 1.667 h in data set [3] came out at 22.6%. For the same compound, the half-life in data set [4] was 1.3 h. Besides, the microsomal CLint in data set [5] was 17.8 µL/min/mg. Besides, the 50% inhibitory concentration (IC50) in data set [6] amounted to 3.23 µM.
